In the OligoGym collection:
Oligonucleotides are given in HELM: sugar(base)linkage, 5' to 3'; d 2'-deoxyribose, r ribose, m 2'-O-methylribose, p phosphate. ss, as = sense and antisense strand

Biological target: UBE2D3
Assay: reporter assay of Huesken 2005
Conditions: siRNA
Further: test concentration or dose not given here.

Substance	normalised inhibition (eCFP-eYFP dual reporter) [%]
RNA1{r(G)p.r(G)p.r(G)p.r(A)p.r(U)p.r(G)p.r(A)p.r(U)p.r(A)p.r(U)p.r(G)p.r(U)p.r(U)p.r(U)p.r(C)p.r(A)p.r(U)p.r(U)p.r(G)p.d(T)p.d(T)}|RNA2{r(C)p.r(A)p.r(A)p.r(U)p.r(G)p.r(A)p.r(A)p.r(A)p.r(C)p.r(A)p.r(U)p.r(A)p.r(U)p.r(C)p.r(A)p.r(U)p.r(C)p.r(C)p.r(C)p.d(C)p.d(A)}$$$RNA1{StrandType:ss}|RNA2{StrandType:as}$	95
RNA1{r(G)p.r(G)p.r(U)p.r(C)p.r(C)p.r(A)p.r(G)p.r(U)p.r(U)p.r(G)p.r(G)p.r(G)p.r(G)p.r(A)p.r(U)p.r(G)p.r(A)p.r(U)p.r(A)p.d(T)p.d(T)}|RNA2{r(U)p.r(A)p.r(U)p.r(C)p.r(A)p.r(U)p.r(C)p.r(C)p.r(C)p.r(C)p.r(A)p.r(A)p.r(C)p.r(U)p.r(G)p.r(G)p.r(A)p.r(C)p.r(C)p.d(T)p.d(G)}$$$RNA1{StrandType:ss}|RNA2{StrandType:as}$	93.7
RNA1{r(G)p.r(G)p.r(U)p.r(C)p.r(G)p.r(C)p.r(C)p.r(U)p.r(G)p.r(C)p.r(U)p.r(U)p.r(U)p.r(A)p.r(A)p.r(C)p.r(A)p.r(A)p.r(U)p.d(T)p.d(T)}|RNA2{r(A)p.r(U)p.r(U)p.r(G)p.r(U)p.r(U)p.r(A)p.r(A)p.r(A)p.r(G)p.r(C)p.r(A)p.r(G)p.r(G)p.r(C)p.r(G)p.r(A)p.r(C)p.r(C)p.d(A)p.d(C)}$$$RNA1{StrandType:ss}|RNA2{StrandType:as}$	84.5
RNA1{r(G)p.r(U)p.r(C)p.r(C)p.r(A)p.r(G)p.r(U)p.r(U)p.r(G)p.r(G)p.r(G)p.r(G)p.r(A)p.r(U)p.r(G)p.r(A)p.r(U)p.r(A)p.r(U)p.d(T)p.d(T)}|RNA2{r(A)p.r(U)p.r(A)p.r(U)p.r(C)p.r(A)p.r(U)p.r(C)p.r(C)p.r(C)p.r(C)p.r(A)p.r(A)p.r(C)p.r(U)p.r(G)p.r(G)p.r(A)p.r(C)p.d(C)p.d(T)}$$$RNA1{StrandType:ss}|RNA2{StrandType:as}$	88.3
RNA1{r(G)p.r(U)p.r(G)p.r(G)p.r(U)p.r(C)p.r(G)p.r(C)p.r(C)p.r(U)p.r(G)p.r(C)p.r(U)p.r(U)p.r(U)p.r(A)p.r(A)p.r(C)p.r(A)p.d(T)p.d(T)}|RNA2{r(U)p.r(G)p.r(U)p.r(U)p.r(A)p.r(A)p.r(A)p.r(G)p.r(C)p.r(A)p.r(G)p.r(G)p.r(C)p.r(G)p.r(A)p.r(C)p.r(C)p.r(A)p.r(C)p.d(T)p.d(G)}$$$RNA1{StrandType:ss}|RNA2{StrandType:as}$	100
RNA1{r(G)p.r(U)p.r(U)p.r(U)p.r(C)p.r(A)p.r(U)p.r(U)p.r(G)p.r(G)p.r(C)p.r(A)p.r(A)p.r(G)p.r(C)p.r(C)p.r(A)p.r(C)p.r(A)p.d(T)p.d(T)}|RNA2{r(U)p.r(G)p.r(U)p.r(G)p.r(G)p.r(C)p.r(U)p.r(U)p.r(G)p.r(C)p.r(C)p.r(A)p.r(A)p.r(U)p.r(G)p.r(A)p.r(A)p.r(A)p.r(C)p.d(A)p.d(T)}$$$RNA1{StrandType:ss}|RNA2{StrandType:as}$	94.9
RNA1{r(U)p.r(A)p.r(A)p.r(G)p.r(A)p.r(U)p.r(C)p.r(A)p.r(C)p.r(A)p.r(G)p.r(U)p.r(G)p.r(G)p.r(U)p.r(C)p.r(G)p.r(C)p.r(C)p.d(T)p.d(T)}|RNA2{r(G)p.r(G)p.r(C)p.r(G)p.r(A)p.r(C)p.r(C)p.r(A)p.r(C)p.r(U)p.r(G)p.r(U)p.r(G)p.r(A)p.r(U)p.r(C)p.r(U)p.r(U)p.r(A)p.d(G)p.d(A)}$$$RNA1{StrandType:ss}|RNA2{StrandType:as}$	55.6
RNA1{r(U)p.r(A)p.r(A)p.r(U)p.r(G)p.r(A)p.r(C)p.r(A)p.r(G)p.r(C)p.r(C)p.r(C)p.r(A)p.r(U)p.r(A)p.r(U)p.r(C)p.r(A)p.r(A)p.d(T)p.d(T)}|RNA2{r(U)p.r(U)p.r(G)p.r(A)p.r(U)p.r(A)p.r(U)p.r(G)p.r(G)p.r(G)p.r(C)p.r(U)p.r(G)p.r(U)p.r(C)p.r(A)p.r(U)p.r(U)p.r(A)p.d(G)p.d(G)}$$$RNA1{StrandType:ss}|RNA2{StrandType:as}$	97.7
RNA1{r(U)p.r(A)p.r(G)p.r(U)p.r(G)p.r(C)p.r(C)p.r(A)p.r(G)p.r(A)p.r(G)p.r(A)p.r(U)p.r(U)p.r(G)p.r(C)p.r(A)p.r(C)p.r(G)p.d(T)p.d(T)}|RNA2{r(C)p.r(G)p.r(U)p.r(G)p.r(C)p.r(A)p.r(A)p.r(U)p.r(C)p.r(U)p.r(C)p.r(U)p.r(G)p.r(G)p.r(C)p.r(A)p.r(C)p.r(U)p.r(A)p.d(G)p.d(G)}$$$RNA1{StrandType:ss}|RNA2{StrandType:as}$	62.4
RNA1{r(U)p.r(A)p.r(U)p.r(C)p.r(A)p.r(A)p.r(G)p.r(G)p.r(C)p.r(G)p.r(G)p.r(U)p.r(G)p.r(U)p.r(A)p.r(U)p.r(U)p.r(C)p.r(U)p.d(T)p.d(T)}|RNA2{r(A)p.r(G)p.r(A)p.r(A)p.r(U)p.r(A)p.r(C)p.r(A)p.r(C)p.r(C)p.r(G)p.r(C)p.r(C)p.r(U)p.r(U)p.r(G)p.r(A)p.r(U)p.r(A)p.d(T)p.d(G)}$$$RNA1{StrandType:ss}|RNA2{StrandType:as}$	99.5
RNA1{r(U)p.r(A)p.r(U)p.r(G)p.r(G)p.r(G)p.r(A)p.r(C)p.r(C)p.r(U)p.r(A)p.r(A)p.r(U)p.r(G)p.r(A)p.r(C)p.r(A)p.r(G)p.r(C)p.d(T)p.d(T)}|RNA2{r(G)p.r(C)p.r(U)p.r(G)p.r(U)p.r(C)p.r(A)p.r(U)p.r(U)p.r(A)p.r(G)p.r(G)p.r(U)p.r(C)p.r(C)p.r(C)p.r(A)p.r(U)p.r(A)p.d(A)p.d(T)}$$$RNA1{StrandType:ss}|RNA2{StrandType:as}$	44.4
RNA1{r(U)p.r(A)p.r(U)p.r(G)p.r(U)p.r(U)p.r(U)p.r(C)p.r(A)p.r(U)p.r(U)p.r(G)p.r(G)p.r(C)p.r(A)p.r(A)p.r(G)p.r(C)p.r(C)p.d(T)p.d(T)}|RNA2{r(G)p.r(G)p.r(C)p.r(U)p.r(U)p.r(G)p.r(C)p.r(C)p.r(A)p.r(A)p.r(U)p.r(G)p.r(A)p.r(A)p.r(A)p.r(C)p.r(A)p.r(U)p.r(A)p.d(T)p.d(C)}$$$RNA1{StrandType:ss}|RNA2{StrandType:as}$	44.7
RNA1{r(U)p.r(C)p.r(A)p.r(C)p.r(U)p.r(G)p.r(C)p.r(U)p.r(A)p.r(U)p.r(G)p.r(U)p.r(G)p.r(A)p.r(U)p.r(C)p.r(C)p.r(A)p.r(A)p.d(T)p.d(T)}|RNA2{r(U)p.r(U)p.r(G)p.r(G)p.r(A)p.r(U)p.r(C)p.r(A)p.r(C)p.r(A)p.r(U)p.r(A)p.r(G)p.r(C)p.r(A)p.r(G)p.r(U)p.r(G)p.r(A)p.d(A)p.d(C)}$$$RNA1{StrandType:ss}|RNA2{StrandType:as}$	95.2
RNA1{r(U)p.r(C)p.r(C)p.r(A)p.r(U)p.r(U)p.r(U)p.r(G)p.r(U)p.r(U)p.r(C)p.r(A)p.r(C)p.r(U)p.r(G)p.r(C)p.r(U)p.r(A)p.r(U)p.d(T)p.d(T)}|RNA2{r(A)p.r(U)p.r(A)p.r(G)p.r(C)p.r(A)p.r(G)p.r(U)p.r(G)p.r(A)p.r(A)p.r(C)p.r(A)p.r(A)p.r(A)p.r(U)p.r(G)p.r(G)p.r(A)p.d(T)p.d(A)}$$$RNA1{StrandType:ss}|RNA2{StrandType:as}$	98.4
RNA1{r(U)p.r(C)p.r(U)p.r(A)p.r(A)p.r(A)p.r(G)p.r(U)p.r(U)p.r(C)p.r(U)p.r(U)p.r(U)p.r(U)p.r(A)p.r(U)p.r(C)p.r(C)p.r(A)p.d(T)p.d(T)}|RNA2{r(U)p.r(G)p.r(G)p.r(A)p.r(U)p.r(A)p.r(A)p.r(A)p.r(A)p.r(G)p.r(A)p.r(A)p.r(C)p.r(U)p.r(U)p.r(U)p.r(A)p.r(G)p.r(A)p.d(A)p.d(A)}$$$RNA1{StrandType:ss}|RNA2{StrandType:as}$	64.2
RNA1{r(U)p.r(C)p.r(U)p.r(A)p.r(A)p.r(G)p.r(A)p.r(U)p.r(C)p.r(A)p.r(C)p.r(A)p.r(G)p.r(U)p.r(G)p.r(G)p.r(U)p.r(C)p.r(G)p.d(T)p.d(T)}|RNA2{r(C)p.r(G)p.r(A)p.r(C)p.r(C)p.r(A)p.r(C)p.r(U)p.r(G)p.r(U)p.r(G)p.r(A)p.r(U)p.r(C)p.r(U)p.r(U)p.r(A)p.r(G)p.r(A)p.d(A)p.d(T)}$$$RNA1{StrandType:ss}|RNA2{StrandType:as}$	43.3
RNA1{r(U)p.r(C)p.r(U)p.r(C)p.r(G)p.r(A)p.r(U)p.r(A)p.r(U)p.r(U)p.r(C)p.r(U)p.r(A)p.r(A)p.r(G)p.r(A)p.r(U)p.r(C)p.r(A)p.d(T)p.d(T)}|RNA2{r(U)p.r(G)p.r(A)p.r(U)p.r(C)p.r(U)p.r(U)p.r(A)p.r(G)p.r(A)p.r(A)p.r(U)p.r(A)p.r(U)p.r(C)p.r(G)p.r(A)p.r(G)p.r(A)p.d(C)p.d(A)}$$$RNA1{StrandType:ss}|RNA2{StrandType:as}$	98.1
RNA1{r(U)p.r(C)p.r(U)p.r(G)p.r(C)p.r(A)p.r(G)p.r(G)p.r(U)p.r(C)p.r(C)p.r(A)p.r(G)p.r(U)p.r(U)p.r(G)p.r(G)p.r(G)p.r(G)p.d(T)p.d(T)}|RNA2{r(C)p.r(C)p.r(C)p.r(C)p.r(A)p.r(A)p.r(C)p.r(U)p.r(G)p.r(G)p.r(A)p.r(C)p.r(C)p.r(U)p.r(G)p.r(C)p.r(A)p.r(G)p.r(A)p.d(A)p.d(C)}$$$RNA1{StrandType:ss}|RNA2{StrandType:as}$	32.9
RNA1{r(U)p.r(G)p.r(A)p.r(C)p.r(A)p.r(A)p.r(U)p.r(U)p.r(C)p.r(A)p.r(U)p.r(U)p.r(U)p.r(U)p.r(C)p.r(C)p.r(U)p.r(A)p.r(C)p.d(T)p.d(T)}|RNA2{r(G)p.r(U)p.r(A)p.r(G)p.r(G)p.r(A)p.r(A)p.r(A)p.r(A)p.r(U)p.r(G)p.r(A)p.r(A)p.r(U)p.r(U)p.r(G)p.r(U)p.r(C)p.r(A)p.d(A)p.d(A)}$$$RNA1{StrandType:ss}|RNA2{StrandType:as}$	55.4
RNA1{r(U)p.r(G)p.r(C)p.r(A)p.r(U)p.r(U)p.r(U)p.r(A)p.r(C)p.r(A)p.r(A)p.r(C)p.r(A)p.r(A)p.r(G)p.r(A)p.r(A)p.r(U)p.r(U)p.d(T)p.d(T)}|RNA2{r(A)p.r(A)p.r(U)p.r(U)p.r(C)p.r(U)p.r(U)p.r(G)p.r(U)p.r(U)p.r(G)p.r(U)p.r(A)p.r(A)p.r(A)p.r(U)p.r(G)p.r(C)p.r(A)p.d(A)p.d(C)}$$$RNA1{StrandType:ss}|RNA2{StrandType:as}$	83.3
